Measurements: patent US6620828B2, “Thiazole compounds and pharmaceutical compositions for inhibiting protein kinases and methods for their use” (Agouron Pharmaceuticals, Inc., priority 1999, dated 2003)
Where “and” joins values, the source holds several entries; their conditions need not be identical. Equal entries are not always repeated. Structures can show the parent of a compound that is named as a salt.

Key:
CHK1 = molecular target: T1, CHK1 (Homo sapiens, UniProt O14757); experiment: CHK1 high-throughput screening; format: biochemical; conditions: for inhibition at 20 µM: read-out: % inhibition @ 20 μM, Table 4, repeated entries per example; for % inhibition @ 20 μM: Table 4, repeated entries per example
T1 sequence (O14757 1-476): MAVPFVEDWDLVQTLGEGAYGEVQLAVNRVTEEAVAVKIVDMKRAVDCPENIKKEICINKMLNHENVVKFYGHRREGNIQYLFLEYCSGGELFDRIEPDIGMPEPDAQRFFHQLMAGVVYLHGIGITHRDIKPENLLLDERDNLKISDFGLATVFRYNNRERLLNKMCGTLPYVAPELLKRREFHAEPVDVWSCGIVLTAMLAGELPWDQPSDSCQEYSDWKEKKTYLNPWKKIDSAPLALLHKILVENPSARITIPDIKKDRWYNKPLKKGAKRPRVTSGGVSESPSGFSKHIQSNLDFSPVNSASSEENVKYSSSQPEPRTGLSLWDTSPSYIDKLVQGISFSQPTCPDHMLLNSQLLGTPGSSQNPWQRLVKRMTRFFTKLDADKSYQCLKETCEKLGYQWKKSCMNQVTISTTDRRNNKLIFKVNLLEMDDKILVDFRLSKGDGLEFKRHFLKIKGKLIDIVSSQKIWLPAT

FAKcd409 = molecular target: T2, FAKcd409 (Homo sapiens, UniProt Q05397, P410T); experiment: FAK HTS assay; format: biochemical; conditions: 10 uM compound, HTS Delphia assay; for % inhibition of FAK: 10 µM
T2 construct: comprises residues methionine 409 to glutamate 689; made in house; host or cells: baculovirus vector expression system
T2 sequence (Q05397 409-689 P410T): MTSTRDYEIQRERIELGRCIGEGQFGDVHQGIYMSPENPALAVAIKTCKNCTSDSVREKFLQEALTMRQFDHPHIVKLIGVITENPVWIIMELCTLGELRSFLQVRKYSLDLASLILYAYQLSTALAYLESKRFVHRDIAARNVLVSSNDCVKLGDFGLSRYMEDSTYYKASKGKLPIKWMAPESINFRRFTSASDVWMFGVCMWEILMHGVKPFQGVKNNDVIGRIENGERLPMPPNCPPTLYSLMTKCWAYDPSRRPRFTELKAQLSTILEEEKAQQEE

[1] = molecular target: T3, phosphorylated VEGF-R2Δ50 (FLVK-P) (Homo sapiens, UniProt P35968, DEL940-989/E990V); experiment: VEGF-R2 coupled spectrophotometric (FLVK-P) assay; format: biochemical; conditions: for Ki: spectrophotometric assay; for inhibition at 0.05 µM: Table 3, at 50 nM
T3 construct: VEGF-R2Δ50 contains residues 806-939 and 990-1171; made in house; host or cells: baculovirus/insect cells
T3 sequence (P35968 with tags, fused parts or gaps DEL940-989/E990V limits assumed): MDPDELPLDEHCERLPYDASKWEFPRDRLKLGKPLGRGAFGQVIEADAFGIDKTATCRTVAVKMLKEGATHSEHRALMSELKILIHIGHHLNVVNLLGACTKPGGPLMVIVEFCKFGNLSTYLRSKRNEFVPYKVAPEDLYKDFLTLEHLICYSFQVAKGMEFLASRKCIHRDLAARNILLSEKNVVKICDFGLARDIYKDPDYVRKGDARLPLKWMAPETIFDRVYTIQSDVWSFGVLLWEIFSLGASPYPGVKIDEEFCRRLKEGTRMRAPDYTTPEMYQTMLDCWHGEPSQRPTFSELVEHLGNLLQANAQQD
How it was run: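 Baculovirus-expressed human VEGF-R2Δ50 (residues 806-939/990-1171, E990V) was autophosphorylated with 3 mM ATP, 40 mM MgCl2 for 2 h at 4° C. ADP formation was coupled via PK/LDH to NADH oxidation, read at 340 nm, with 5.1 mM poly(E4Y1), 1 mM ATP, 25 mM MgCl2, Hepes pH 7.5. Ki came from activity across compound concentrations.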

CDK2/Cyclin A complex = CDK2/Cyclin A complex (Homo sapiens, UniProt P24941); experiment: CDK2/Cyclin A assay; format: biochemical; conditions: Table 2
How it was run: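 Radiometric assay: 150 nM CDK2/cyclin A (insect-cell CDK2, truncated cyclin A) phosphorylates His-tagged Rb fragment (residues 386-928) with 25 μM ATP plus [32P]ATP, pH 7.4 HEPES, 2% DMSO, 30 °C for 20 min. Filter-captured product counted by phosphorimager; apparent Ki from competitive or tight-binding inhibition fits.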

CDK4/Cyclin D3 complex = molecular target: T4, CDK4/Cyclin D3 complex (Homo sapiens, UniProt P11802); experiment: CDK4/Cyclin D assay; format: biochemical; conditions: Table 2
T4 construct: made in house; host or cells: insect cells co-infected with baculovirus vectors
T4 sequence (P11802 whole entry): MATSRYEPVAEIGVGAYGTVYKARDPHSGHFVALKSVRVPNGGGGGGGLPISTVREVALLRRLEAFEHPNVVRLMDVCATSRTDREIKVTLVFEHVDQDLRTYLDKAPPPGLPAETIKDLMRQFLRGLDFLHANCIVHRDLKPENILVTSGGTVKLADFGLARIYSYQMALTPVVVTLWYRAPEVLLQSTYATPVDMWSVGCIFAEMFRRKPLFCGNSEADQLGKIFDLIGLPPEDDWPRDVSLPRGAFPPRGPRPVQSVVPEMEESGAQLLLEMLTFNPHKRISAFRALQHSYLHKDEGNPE
T4 sequence (P30281 whole entry partner): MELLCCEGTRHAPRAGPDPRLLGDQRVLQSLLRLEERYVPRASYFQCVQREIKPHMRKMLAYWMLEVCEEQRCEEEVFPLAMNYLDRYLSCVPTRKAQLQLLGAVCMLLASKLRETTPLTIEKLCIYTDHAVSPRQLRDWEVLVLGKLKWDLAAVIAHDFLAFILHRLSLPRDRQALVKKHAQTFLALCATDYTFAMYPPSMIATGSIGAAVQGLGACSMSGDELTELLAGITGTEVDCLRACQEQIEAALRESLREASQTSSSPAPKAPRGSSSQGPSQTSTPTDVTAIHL
How it was run: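 Insect-cell-expressed CDK4/cyclin D3 (50 nM) phosphorylating His-tagged Rb fragment (residues 386-928) with 25 μM [^32P]ATP in HEPES pH 7.4, MgCl2, 2% DMSO; 20 min at 30 °C, EDTA stop. Filter-captured 32P by phosphorimager; apparent Ki from competitive or tight-binding inhibition fits.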

[2] = tested on: lung cancer cells (line MV522); experiment: Cancer cell proliferation (MV522) assay; format: cell-based
[3] = tested on: human umbilical vein endothelial cells (HUVEC); experiment: HUVEC proliferation assay; format: cell-based; conditions: Homo sapiens, HUVEC
How it was run: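 Readout was MTT dye reduction (A595) after 72 h of stimulation with VEGF at 6 ng/ml final. Compound, in 0.1% DMSO final, was added 1 h before VEGF to HUVEC starved 24 h in 1% FBS. % inhibition was scaled between VEGF-alone and unstimulated wells; IC50 was fitted from triplicate dose curves.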

LCK tyrosine kinase = molecular target: T5, LCK tyrosine kinase (Homo sapiens, UniProt P06239, C224D/P223M); experiment: LCK spectrophotometric assay; format: biochemical; conditions: Table 3, read-out: LCK (% inh @ 1 uM)
T5 construct: starting from amino acid residue 223 to the end of the protein at residue 509; made in house; host or cells: insect cells
T5 sequence (P06239 223-509 P223M/C224D): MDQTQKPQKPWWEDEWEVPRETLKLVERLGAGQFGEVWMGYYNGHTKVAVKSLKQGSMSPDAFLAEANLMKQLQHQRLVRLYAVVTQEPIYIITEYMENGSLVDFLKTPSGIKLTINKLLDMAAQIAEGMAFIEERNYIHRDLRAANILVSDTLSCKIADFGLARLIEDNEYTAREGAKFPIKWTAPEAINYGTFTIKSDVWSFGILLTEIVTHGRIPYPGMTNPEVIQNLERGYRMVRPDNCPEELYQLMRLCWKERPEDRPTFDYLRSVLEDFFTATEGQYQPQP

[4] = molecular target: T6, unphosphorylated VEGF-R2Δ50 (FLVK) (Homo sapiens, UniProt P35968, DEL940-989/E990V); experiment: VEGF-R2 coupled spectrophotometric assay, unphosphorylated enzyme (FLVK); format: biochemical; conditions: Table 3; some entries 'Slow binder'
T6 construct: VEGF-R2Δ50 contains residues 806-939 and 990-1171; made in house; host or cells: baculovirus/insect cells
T6 sequence (P35968 with tags, fused parts or gaps DEL940-989/E990V limits assumed): as the sequence (P35968 with tags, fused parts or gaps DEL940-989/E990V limits assumed) above
How it was run: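 Unphosphorylated VEGF-R2Δ50 (5 to 40 nM) with 20 mM poly(E4Y1), 3 mM ATP, 60 mM MgCl2, 2 mM MnCl2 in 200 mM Hepes pH 7.5. ADP production coupled via PK/LDH to NADH oxidation, read at 340 nm. Ki from activity at varying compound concentrations.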

FGF-R1 = molecular target: T7, FGF-R1 (Homo sapiens, UniProt P11362, C488A/C584S/L457V); experiment: FGF-R spectrophotometric assay; format: biochemical; conditions: Table 3; % inh @ 1 uM; read-out: FGF-P Ki (nM) (% inh @ 1 uM)
T7 construct: starting from the endogenous methionine residue 456 to glutamate 766; made in house; host or cells: baculovirus vector expression system
T7 sequence (P11362 456-766 L457V/C488A/C584S): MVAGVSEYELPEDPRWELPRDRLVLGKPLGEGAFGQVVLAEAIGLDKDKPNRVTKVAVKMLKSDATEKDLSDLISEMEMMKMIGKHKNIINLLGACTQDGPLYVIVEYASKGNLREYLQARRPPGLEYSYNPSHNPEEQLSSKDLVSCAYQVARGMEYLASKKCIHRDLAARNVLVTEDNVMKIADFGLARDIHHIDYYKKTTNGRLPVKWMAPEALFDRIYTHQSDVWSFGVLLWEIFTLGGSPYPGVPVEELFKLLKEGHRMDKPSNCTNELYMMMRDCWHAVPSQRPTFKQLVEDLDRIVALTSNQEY
Procedure: FGF-R1 Construct for Assay: The intracellular kinase domain of human FGF-R1 was expressed using the baculovirus vector expression system starting from the endogenous methionine residue 456 to glutamate 766, according to the residue numbering system of Mohammadi et al., Mol. Cell. Biol., 16, 977-989 (1996). In addition, the construct also has the following 3 amino acid substitutions: L457V, C488A, and C584S.
The spectrophotometric assay was carried out as described above for VEGF-R2, except for the following changes in concentration: FGF-R=50 nM, ATP=2 mM, and poly(E4Y1)=15 mM.

Row | SMILES | inhibition at 20 µM (CHK1) [%] | % inhibition of FAK (FAKcd409) | inhibition at 1 µM (LCK tyrosine kinase) [%] | Ki [4] [nM] | IC50 ([2]; MV522, Table 3) [nM] | inhibition at 1 µM (FGF-R1) [%] | IC50 ([3]; Table 3) [nM] | also measured
1 | Nc1nc(Nc2ccc3c(c2)OCCO3)sc1-c1nc(-c2cccc(NC(=O)c3ccccc3)c2)cs1 [A(45), N-{3-[4′-Amino-2′-(2,3-dihydro-benzo[1,4]dioxin-6-ylamino)-[2,5′]bithiazolyl-4-yl]-phenyl}-benzamide] | -1 | −13% and −4% and −6% |  |  |  |  |  | Ki ([1]; Table 1): 9.7 nM
2 | CCOC(=O)c1nc(-c2sc(Nc3ccc(S(N)(=O)=O)cc3)nc2N)sc1Cc1ccccc1 [A(73), 4′-Amino-5-benzyl-2′-(4-sulfamoyl-phenylamino)-[2,5′]bithiazolyl-4-carboxylic acid ethyl ester] | 14.3 | −23% and −30% |  |  |  |  |  | CDK2 % inhibition @ 100 (CDK2/Cyclin A complex; at 100 (printed 100 or 100 μM)): 36% @; % inhibition @ 20 μM (CHK1): 14.4% and 7.3%; inhibition at 100 µM (CDK4/Cyclin D3 complex; at 100 (printed 100 or 100 μM)): < 0%
3 | CC(=O)Nc1cc(Nc2nc(N)c(-c3nc(-c4cccc(NC(=O)c5ccccc5)c4)cs3)s2)ccc1C [A(48), N-{3-[2′-(3-Acetylamino-4-methyl-phenylamino)-4′-amino-[2,5′]bithiazolyl-4-yl]-phenyl}-benzamide] | 1.3 | −2% and −8% |  |  |  |  |  | IC50 ([2]; MV522, Table 1): > 10000 nM; Ki ([1]; Table 1): 3.1 nM; IC50 ([3]; Table 1): 350 nM
4 | Cc1ccc(Nc2nc(N)c(-c3nc(-c4cccc(NC(=O)OCc5ccccc5)c4)cs3)s2)cc1 [A(36), [3-(4′-Amino-2′-p-tolylamino-[2,5′]bithiazolyl-4-yl)-phenyl]-carbamic acid benzyl ester] | 2.8 | −6% and −11% and −15% |  |  |  |  |  | FLVK-P % inhibition @ 0.05 ([1]; Table 1, at 0.05, concentration unit not printed (head nM)): 36% @
5 | Nc1nc(Nc2ccc3c(=O)[nH][nH]c(=O)c3c2)sc1-c1nc(-c2cccc(NC(=O)c3ccccc3)c2)cs1 [A(49), N-{3-[4′-Amino-2′-(1,4-dioxo-1,2,3,4-tetrahydro-phthalazin-6-ylamino)-[2,5′]bithiazolyl-4-yl]-phenyl}-benzamide] | 14.1 | −13% and −7% and −10% |  |  |  |  |  | 
6 | COc1cc(Nc2nc(N)c(-c3nc(-c4cccc(C(=O)Nc5ccc(C(C)C)c(C)c5)c4)cs3)s2)cc(OC)c1OC [A(34), 3-[4′-Amino-2′-(3,4,5-trimethoxy-phenylamino)-[2,5′]bithiazolyl-4-yl]-N-(4-isopropyl-3-methyl-phenyl)-benzamide] |  | −3% and −8% and −13% |  |  |  |  |  | % inhibition @ 20 μM (CHK1): 4.6% and −3.4%
7 | CCOC(=O)c1csc(-c2sc(Nc3ccc(S(N)(=O)=O)cc3)nc2N)n1 [A(68), Ethyl 4′-amino-2′-(4-sulfamoyl-phenylamino)-[2,5′]bithiazolyl-4-carboxylate] |  |  |  |  |  |  |  | Ki (CDK2/Cyclin A complex): 130 nM; Ki (CDK4/Cyclin D3 complex): 4500 nM; inhibition at 10 µM (FAKcd409): -18%
8 | COc1cc(Nc2nc(N)c(-c3nc(-c4cc(NC(=O)OC(C)(C)C)c(F)cc4Cl)no3)s2)cc(OC)c1OC [B(14), (5-{5-[4-Amino-2-(3,4,5-trimethoxy-phenylamino)-thiazol-5-yl]-[1,2,4]oxadiazol-3-yl}-4-chloro-2-fluoro-phenyl)-carbamic acid tert-butyl ester] |  |  | 10 | 0.76 | > 10000 | 46 | 11 | inhibition at 0.05 µM [1]: 13%
9 | COc1cccc(C(=O)Nc2cc(-c3noc(-c4sc(Nc5ccc(N6CCOCC6)nc5)nc4N)n3)c(F)cc2F)c1 [B(18), N-(5-{5-[4-Amino-2-(6-morpholin-4-yl-pyridin-3-ylamino)-thiazol-5-yl]-[1,2,4]oxadiazol-3-yl}-2,4-difluoro-phenyl)-3-methoxy-benzamide] |  |  | < 0 | 0.9 | 1900 | 8 | 10 | 
10 | COc1cccc(C(=O)Nc2ccc(F)c(-c3noc(-c4sc(Nc5cc(OC)c(OC)c(OC)c5)nc4N)n3)c2)c1 [D(72), 3-[2-fluoro-5-[(3-methoxybenzoyl)amino]-phenyl]-5-[2-[(3,4,5-trimethoxyphenyl)amino]-4-amino-5-thiazolyl]-1,2,4-oxadiazole] |  |  | 35 | 0.9 | > 10000 | 49 | 4.7 | 
11 | Cc1cccc(C(=O)Nc2cccc(-c3noc(-c4sc(NC(=O)NCCCN5CCOCC5)nc4N)n3)c2)c1 [O(12), N-[3-(5-{4-Amino-2-[3-(3-morpholin-4-yl-propyl)-ureido]-thiazol-5-yl}-[1,2,4]oxadiazol-3-yl)-phenyl]-3-methyl-benzamide] |  |  | 21 | 0.19 | 44000 | 33 | 45 | 
12 | Cc1cccc(Nc2nc(N)c(-c3nc(-c4cccc(NC(=O)c5ccccc5)c4)cs3)s2)c1 [A(44), [3-(4′-Amino-2′-m-tolylamino-[2,5′]bithiazolyl-4-yl)-phenyl]-benzamide] | -7.1 | −15% and −5% and −10% |  |  |  |  |  | 
13 | COc1cc(Nc2nc(N)c(-c3nc(-c4cc(NC(=O)c5cccc(Cl)c5)c(F)cc4F)no3)s2)cc(OC)c1OC [D(66), N-(5-{5-[4-Amino-2-(3,4,5-trimethoxy-phenylamino)-thiazol-5-yl]-[1,2,4]oxadiazol-3-yl}-2,4-difluoro-phenyl)-3-chloro-benzamide] |  |  | 15 | 1 | > 10000 | 55 | 4.2 | 
14 | CCOC(=O)c1cccc(Nc2nc(N)c(-c3nc(-c4cccc(NC(=O)c5ccccc5)c4)cs3)s2)c1 [A(40), 3-[4′-Amino-4-(3-benzoylaminophenyl)-[2,5′]bithiazolyl-2′-ylamino]-benzoic acid ethyl ester] | 1 |  |  |  |  |  |  | inhibition at 10 µM (FAKcd409): -6%
15 | COc1cccc(C(=O)Nc2cc(-c3noc(-c4sc(Nc5cc(OC)c(OC)c(OC)c5)nc4N)n3)c(Cl)cc2F)c1 [D(70), N-(5-{5-[4-Amino-2-(3,4,5-trimethoxy-phenylamino)-thiazol-5-yl]-[1,2,4]oxadiazol-3-yl}-4-chloro-2-fluoro-phenyl)-3-methoxy-benzamide TFA salt] |  |  | 61 | 3.5 | > 10000 | 59 | 5.4 | inhibition at 0.05 µM [1]: 91%
